This is an account of results in US4410546A, “Antiallergic compositions” (Hisamitsu Pharmaceutical Co., Inc., priority 1981, dated 1983).

The test system of series [1] is reversed cutaneous anaphylaxis. Nature of the series: Reversed cutaneous anaphylaxis test on rats. Type of series: in vivo, rat (male Wistar strain). To be noted: 100 mg/kg oral, one hour prior to anti-rat rabbit serum; for inhibition at 100 mg/kg: 1 h, read-out: Inhibition rate. Here is the method: In accordance with Yamazaki et al's method (Folia Pharmacol. Jap. 60, .sctn.65, 1964) obtained by improving Ungar et al's method (Arch. intern. Pharmacodyn. 123, 71, 1959), male Wistar strain rats, each weighing about 100 g, were tested as follows.
First of all, anti-rat rabbit serum was dissolved in such an amount in an 0.5% solution of Evans blue as to obtain a 15% solution of the serum. The thus obtained serum solution was injected intradermally in an 0.05 ml dose into each of 2 sites on one side of the back of each of the rats, while an 0.5% solution of Evans blue in saline solution was also injected similarly in an 0.05 ml dose into each of 2 sites on one side of the back thereof. Two hours later, the test animals were sacrificed and their skins were peeled. The skins so peeled were punched as the indication of the Evans blue spot to separate the edema (swollen) portions thereof which were then measured for their weights.
The strength of intumescence was calculated from the following formula: [formula] wherein Wi is the weight of the inflammatory portion and Ws is the weight of the control portion.
The antiallergic compounds of the formula (I) according to this invention were orally administered at a dose of 100 mg/kg to the rats one hour prior to the injection of the anti-rat rabbit serum.

For series [2], the system named is lung fragment of guinea pigs. The series can be described thus: Histamine release on lung fragment of guinea pigs. The format is cell-based, guinea pig. The note with it: sodium salt, induced by ovalbumin 10^-6 g/ml. As to the method:
The lungs of guinea pigs sensitized actively by ovalbumin were thoroughly irrigated by Tyrode's solution and then cut to obtain about 1-2 mm thick pieces. Two hundred (200) mg of the thus obtained fragments were accurately weighed out, immersed in Tyrode's solution and preincubated at 37° C. for 5 minutes. Then, the compounds of the formula (I) were each suspended in saline solution containing 0.5% of tragacanth gum, incubated at 37° C. for 20 minutes and induced by 10^-6 g/ml of ovalbumin.
Following 20 minutes' incubation, the siolutin was chilled in ice and then measured for the amount of released histamine in the medium and remaining in the tissue by the use of fluorometric assay in accordance with the Shore et al's method (J. Pharmacol. exp. Ther. 127, 182, 1959).

A short description of another series: Acute toxicity test. To be noted: mouse, in vivo; oral, mice, death in 3 weeks. As to the method:
The compounds (of the formula (I)) to be tested were each suspended in a saline solution containing 0.5% of tragacanth gum and then orally administered to 6 ddY strain mice in a group, each mouse weighing 20-25 g. LD50 values were calculated from the death of mice in 3 weeks following the administration.

The test system of another series is mesenteric mast cells. The series can be described thus: Test for the degranulation of mesenteric mast cells in rats. The format is cell-based, rat. To be noted: 10^-4 g/ml; induced by 5×10^-6 g/ml DNP-As. As to the method: Rats were passively sensitized at their abdominal cavity by anti-DNP-As rat serum, 24 hours after which the mesenterium of the rats was enucleated. Then, 100 mg of the mesenterium were accurately weighed out, immersed in Tyrode's solution and preincubated at 37° C. for 5 minutes. Thereafter, the immersed solution was added to the antiallergic compounds of the formula (I) suspended in saline solution containing 0.5% of tragacanth gum, incubated at 37° C. for 20 minutes and then induced by 5×10^-6 g/ml of DNP-As. After 20 minutes' incubation, the solution was chilled in ice, and the mesenterium so reacted was dyed by the use of formalin (10% formaldehyde content) and an 0.1% tolwdine blue solution containing 0.1% of acetic acid, treated with ethanol and xylene and measured for degranulation by mirror inspection ([…]).

Series [3] deals with homologous passive cutaneous anaphylaxis. The series can be described thus: Homologous passive cutaneous anaphylaxis (Homolog. PCA) in rats. The note with it: 200 mg/kg oral, 2 hours prior to antigen; for inhibition at 200 mg/kg: Rattus norvegicus. The format is in vivo, rat (male Wistar strain). The text has this: In accordance with the experimental method of Tada, T et al (J. Immunol., 106, 1002, 1971), a homologous passive cutaneous anaphylaxis (Homolog. PCA) reaction test was made on male Wistar strain rats, each weighing 160-170 g. In this test, DNP-As (Dinitrophenol coupled Ascaris suum extract) was obtained by reacting dinitrophenol (DNP) with protein extracted from Ascaris suum and was used as the antigen. Anti-DNP-As rats serum was prepaed using said antigen and was used as the antibody. […] After the lapse of 48 hours, the test animals were each given 1.0 ml of the antigen solution (2.0 mg as the amount of protein) containing 0.25% Evans blue by intravenous injection thereinto. Thirty (30) minutes later, they were sacrificed by exsanguination and their skins were peeled to measure the area of PCA blueing lesion. The amounts of dye extravasated were each measured in accordance with the method proposed by Harada, M. et al (J. Pharm. Pharmacol., 23, 218, 1971).
The compounds of the formula (I) were orally administered at a dose of 200 mg/kg to the rats two hours prior to the administration of the antigen thereto.

Setting [4] is: amount of dye, read-out: Inhibition rate (amount of dye extravasated).
[5] abbreviates: area, read-out: Inhibition rate (area of dye extravasated).

Like-named read-outs stand apart in the source and are kept apart here.

The term inhibition denotes the percentage by which the read-out fell short of the control. As usually defined, the LD50 is the dose at which mortality reaches 50%. Low readings indicate greater toxicity, high ones lower toxicity. In the case of `CCCC[C@H]1CC[C@H](C(=O)O)CC1` [Compound 1, trans-4-n-butylcyclohexanecarboxylic acid], in series [1], the Intumescence rate is 29.81 ± 7.17% and the inhibition at 100 mg/kg amounted to 30%. Further, the “Inhibition rate (histamine release)” value in series [2] (Conc.: 10^-4 g/ml) is 83.9%. Moreover, the “Inhibition rate (histamine release)” value in series [2] (Conc.: 10^-5 g/ml) turned out to be 9.2%. Also, the 50% lethal dose (LD50) at 504 h in the series “Acute toxicity test” is more than 2000 mg/kg. This molecule showed a Degranulation rate with mesenteric mast cells of 71.45 ± 5.85%. Further, in series [3], the “Amount of dye extravasated” value turned out to be 5.17 ± 0.32 μg/site and the “Area of dye extravasated” value was 76.87 ± 2.68 mm^2. Besides, in series [3] (setting [4]), the inhibition at 200 mg/kg was 64%. In addition, in series [3] (setting [5]), the inhibition at 200 mg/kg came to 22.4%.
For `CCCCC[C@H]1CC[C@H](C(=O)O)CC1` [Compound 2, trans-4-n-pentylcyclohexanecarboxylic acid], in series [1], the Intumescence rate was found to be 25.00 ± 2.77% and the inhibition at 100 mg/kg stood at 41.3%. Further, the “Inhibition rate (histamine release)” value in series [2] (Conc.: 10^-4 g/ml) is listed as 92.2%. The “Inhibition rate (histamine release)” value in series [2] (Conc.: 10^-5 g/ml) is reported as 83.4%. Moreover, the LD50 at 504 h in the series “Acute toxicity test” is more than 2000 mg/kg. Further, the Degranulation rate in the series on mesenteric mast cells was 74.96 ± 2.91%. In series [3], the “Amount of dye extravasated” value came out at 2.49 ± 0.29 μg/site and the “Area of dye extravasated” value was 67.20 ± 2.57 mm^2. In addition, the inhibition at 200 mg/kg in series [3] (setting [4]) worked out at 82.7%. Also, in series [3] (setting [5]), the inhibition at 200 mg/kg stood at 32.2%.
